According to US20080038381A1, “APPLICATION OF GREEN TEA EXTRACT AND ITS MAJOR COMPONENTS IN KELOID SCAR THERAPY” (UNIVERSITY OF SOUTHERN CALIFORNIA, priority 2006, published 2008):

Assays:
Assay type in all cases: cell-based, human
[1] = system: type I collagen expression in keloid fibroblasts co-cultured with HMC-1 cells; test: HMC-1-stimulated type I collagen expression in co-cultured keloid fibroblasts (Western blot); conditions: pretreated 1 h, then co-culture with same density of HMC-1 cells (1:1) for 24 h
Method: (§1) Keloid fibroblasts (1×10^5/well) were seeded on the bottom of a 6-well plate and maintained at normal culturing conditions for at least 24 h. Different densities of HMC-1 cells were seeded on top of the monolayer of fibroblasts and co-cultured for different time intervals based on experimental purposes. To observe the effects of GTE and EGCG or various specific kinase inhibitors on type I collagen expression in keloid fibroblasts co-cultured with HMC-1 cells, fibroblasts at about 80% confluence were pretreated with different concentrations of GTE, EGCG, or various kinase inhibitors for 1 h followed by co-culturing with the same cell density of HMC-1 cells (1:1) under normal culturing conditions for indicated time periods. Cell lysates were prepared for Western blot analysis.
To determine type I collagen, and phosphorylated ERK1/2 and Akt levels, cells were solubilized in lysis buffer (50 mM Tris-HCl, pH 7.5, 150 mM NaCl, 5 mM EDTA, 200 μM Na3VO4, 50 mM NaF, 0.5% Triton X-100) supplemented with 10 mM dithiothreitol (DTT), 200 FM phenylmethylsulfonyl fluoride (PMSF) and protease inhibitor cocktails (Sigma). Total protein concentrations of whole cell lysates were determined using BioRad BCA method (PIERCE, Rockford, Ill.). Equal amounts of protein sampled from whole cell lysates were subjected to electrophoresis on 7.5%-10% sodium dodecyl sulfate (SDS)-polyacrylamide gels and electroblotted onto nitrocellulose membranes (Hybond ECL, Amersham Pharmacia). After blocking with Tris-buffered saline (TBS)/5% skim milk, the membranes were incubated overnight at 4 °C with primary antibodies against human type I collagen, total or phosphorylated ERK1/2 (Thr202/Tyr204) or Akt (Ser473). Membranes were subsequently washed, incubated with a horseradish peroxidase (HRP) conjugated secondary:antibodies (1:2000) (Pierce, Rockford, Ill.) for 1 h at room temperature, and visualized using an enhanced chemiluminescent (ECL) detection.

phosphorylated ERK1/2 = test: HMC-1-stimulated phosphorylated ERK1/2 level in keloid fibroblasts (Western blot); conditions: keloid fibroblasts pretreated 1 h, co-culture 1 h
Method: (§2) FIG. 5 Effects of GTE and EGCG on mast cell-stimulated activation of ERK1/2 and Akt, phosphorylation of p70S6K and 4E-BP-1 in keloid fibroblasts. Keloid fibroblasts (KFs) were pretreated with different concentrations of GTE or EGCG, or various kinase inhibitors for 1 h, followed by direct co-culture with the same number of HMC-1 cells under normal culturing condition for 1 h. Equal amount of cell lysates was subjected to Western blot analysis with an antibodies against ERK1/2 (a), p38 MAPK (b), Akt, p70S6K and 4E-BP1 (c) as described in Materials and Methods. Data presented are representative of results from 3 independent experiments.
(§3) Keloid fibroblasts (1×10^5/well) were seeded on the bottom of a 6-well plate and maintained at normal culturing conditions for at least 24 h. Different densities of HMC-1 cells were seeded on top of the monolayer of fibroblasts and co-cultured for different time intervals based on experimental purposes. […]
(§4) To determine type I collagen, and phosphorylated ERK1/2 and Akt levels, cells were solubilized in lysis buffer (50 mM Tris-HCl, pH 7.5, 150 mM NaCl, 5 mM EDTA, 200 μM Na3VO4, 50 mM NaF, 0.5% Triton X-100) supplemented with 10 mM dithiothreitol (DTT), 200 FM phenylmethylsulfonyl fluoride (PMSF) and protease inhibitor cocktails (Sigma). Total protein concentrations of whole cell lysates were determined using BioRad BCA method (PIERCE, Rockford, Ill.). […]

[2] = system: pro-COL1A1 and COL1A2 gene mRNA; test: COL1A1 and COL1A2 mRNA levels by RT-PCR in co-cultured keloid fibroblasts and HMC-1 cells; conditions: pretreated 1 h, co-culture with HMC-1 cells 24 h
Method: as §1
Total RNA was isolated from […] using TRIZOL® Reagent (Invitrogen). RT-PCR analysis of COL1A1, COL1A2 and β-actin mRNA levels was performed using the One-step RT-PCR Kit (QIAGEN, Valencia, Calif.) with primers specific to COL1A1: forward primer 5′-[…]-3′ and reverse primer 5′-[…]-3′; primers for COL1A2: forward primer 5′-[…]-3′ and reverse primer 5′-[…]-3′ (Stefanovic et al., 2005); primers for […]1-actin: forward primer 5′-[…]-3′ and reverse primer 5′-[…]-3′. All the primers were synthesized by Microchemical Core Facility, Norris Cancer Center of University of Southern California.

phosphorylated Akt = test: HMC-1-stimulated phosphorylated Akt level in keloid fibroblasts (Western blot); conditions: keloid fibroblasts pretreated 1 h, co-culture 1 h
Method: as §2, with “experiments. Keloid fibroblasts (1×10^5/well) were seeded on the bottom of a 6-well plate and maintained at normal culturing conditions for at least 24 h. Different densities of HMC-1 cells were seeded on top of the monolayer of fibroblasts and co-cultured for different time intervals based on experimental purposes. […] Total protein concentrations of whole cell lysates were determined using BioRad BCA method (PIERCE, Rockford, Ill.). […]” for “experiments.”

HMC-1 cells = test: Cell viability by MTT assay, HMC-1 cells; conditions: different concentrations, 24 h, normal conditions
p-p70S6K = test: HMC-1-stimulated p-p70S6K level in keloid fibroblasts (Western blot); conditions: keloid fibroblasts pretreated 1 h, co-culture 1 h
Method: as §2, §3, §4

[3] = system: type I collagen in keloid fibroblasts; test: Basal (constitutive) type I collagen level in keloid fibroblasts (Western blot); conditions: keloid fibroblasts alone, 24 h
Method: Equal amount of cell lysates (100 μg) was subjected to Western blot analysis with an anti-type I collagen antibody as described in Materials and Methods. […] (c) KFs were cultured in the presence of different concentrations of GTE or EGCG for 24 h, and type I collagen levels were determined by Western blot. (d) Denssitometric analysis of results from c. […] The results represent three independent experiments and expressed as the mean ±SD.
To determine type I collagen, and phosphorylated ERK1/2 and Akt levels, cells were solubilized in lysis buffer (50 mM Tris-HCl, pH 7.5, 150 mM NaCl, 5 mM EDTA, 200 μM Na3VO4, 50 mM NaF, 0.5% Triton X-100) supplemented with 10 mM dithiothreitol (DTT), 200 FM phenylmethylsulfonyl fluoride (PMSF) and protease inhibitor cocktails (Sigma). Total protein concentrations of whole cell lysates were determined using BioRad BCA method (PIERCE, Rockford, Ill.). Equal amounts of protein sampled from whole cell lysates were subjected to electrophoresis on 7.5%-10% sodium dodecyl sulfate (SDS)-polyacrylamide gels and electroblotted onto nitrocellulose membranes (Hybond ECL, Amersham Pharmacia). […]
To find out whether GTE and EGCG have any effects on the basal level of type I collagen in keloid fibroblasts, cells were cultured in the presence of different concentrations of GTE or EGCG for 24 hours and type I collagen levels were determined by Western blot.

keloid fibroblasts = test: Cell viability by MTT assay, keloid fibroblasts; conditions: different concentrations, 24 h, normal conditions
phosphorylated p38 MAPK = test: HMC-1-stimulated phosphorylated p38 MAPK level in keloid fibroblasts (Western blot); conditions: keloid fibroblasts pretreated 1 h, co-culture 1 h
Method: as §2, §3, §4

p-4E-BP = test: HMC-1-stimulated p-4E-BP level in keloid fibroblasts (Western blot); conditions: keloid fibroblasts pretreated 1 h, co-culture 1 h
Method: as §2, with “experiments. Keloid fibroblasts (1×10^5/well) were seeded on the bottom of a 6-well plate and maintained at normal culturing conditions for at least 24 h. Different densities of HMC-1 cells were seeded on top of the monolayer of fibroblasts and co-cultured for different time intervals based on experimental purposes. […] Total protein concentrations of whole cell lysates were determined using BioRad BCA method (PIERCE, Rockford, Ill.). […]” for “experiments.”

SMILES: C[S+]([O-])c1ccc(-c2nc(-c3ccncc3)c(-c3ccc(F)cc3)[nH]2)cc1 (stereo not shown) [SB203580]
- HMC-1-stimulated type I collagen expression (protein production) in keloid fibroblasts [1]: dose dependent inhibition

SMILES: N#CC(=C(/N)Sc1ccccc1N)/C(C#N)=C(\N)Sc1ccccc1N [U0126]
- HMC-1-stimulated type I collagen expression (protein production) in keloid fibroblasts [1]: no obvious inhibitory effects

SMILES: O=C(O[C@@H]1Cc2c(O)cc(O)cc2O[C@@H]1c1cc(O)c(O)c(O)c1)c1cc(O)c(O)c(O)c1 [EGCG, (−)-epigallocatechin-3-gallate]
- phosphorylated ERK1/2 level stimulated by co-culture with HMC-1 cells (phosphorylated ERK1/2): did not have any obvious inhibitory effects
- HMC-1-stimulated type I collagen mRNA messages (pro-COL1A1, COL1A2) in keloid fibroblasts [2]: dose-dependent reduction
- HMC-1-stimulated type I collagen expression (protein production) in keloid fibroblasts [1]: dose-dependent reduction
- phosphorylated Akt level stimulated by HMC-1 cells (phosphorylated Akt): dose-dependent reduction
- cell viability (MTT), HMC-1 cells (HMC-1 cells): No obvious changes in cell viability
- p-p70S6K level stimulated by HMC-1 cells (p-p70S6K): dose-dependent reduction
- constitutive (basal) expression of type I collagen in keloid fibroblasts [3]: inhibited the constitutive expression of type I collagen in a dose-dependent manner
- cell viability (MTT), keloid fibroblasts (keloid fibroblasts): No obvious changes in cell viability
- phosphorylated p38 MAPK level stimulated by co-culture with HMC-1 cells (phosphorylated p38 MAPK): did not have any obvious inhibitory effects
- p-4E-BP level stimulated by HMC-1 cells (p-4E-BP): dose-dependent reduction

SMILES: COc1cccc(-c2cc(=O)c3ccccc3o2)c1N [PD98059]
- HMC-1-stimulated type I collagen expression (protein production) in keloid fibroblasts [1]: no obvious inhibitory effects
